Measured values from the supplement of paper PMC10883282.
± gives the standard deviation of the averaged measurements.

How the values were obtained:
Experiment in all cases: relative viability vs DMSO control (72 h) (fraction); higher = more viable cells
A204 = tested on: A204
How it was run: (§1)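 Sarcoma cell lines were seeded in 384-well plates at densities set to reach 80–90% confluence. After 24 h, 2.5 µl of serially diluted compound was added (source plates 10 mM to 0.0002 mM), and plates were held 72 h at 37 °C, 5% CO2, with 0.1% DMSO vehicle and a 5 µM positive control. Relative viability came from ATPLite readings as percent growth, averaged over up to triplicate wells. Data were rescaled so full viability equals 1 and none equals 0.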

G401 = tested on: G401
How it was run: as §1

HS729 = tested on: HS729
How it was run: as §1

KHOS-240S = tested on: KHOS-240S
How it was run: as §1

MES-SA = tested on: MES-SA
How it was run: as §1

SK-ES-1 = tested on: SK-ES-1
How it was run: as §1

SK-LMS-1 = tested on: SK-LMS-1
How it was run: as §1

SW1353 = tested on: SW1353
How it was run: as §1

SW684 = tested on: SW684
How it was run: as §1

SW872 = tested on: SW872
How it was run: as §1

SW982 = tested on: SW982
How it was run: as §1

SYO-1 = tested on: SYO-1
How it was run: as §1

C=CC(=O)N1CCC(CNc2ncnc(N)c2-c2ccc(Oc3ccccc3)cc2)CC1 [Evobrutinib]
Conditions	relative viability
A204, 0.00017 µM	1.1 ± 0.057
A204, 0.00051 µM	1.16 ± 0.065
A204, 0.00152 µM	1.16 ± 0.091
A204, 0.00457 µM	1.11 ± 0.064
A204, 0.01372 µM	1.02 ± 0.083
A204, 0.04115 µM	1.05 ± 0.031
A204, 0.1235 µM	1.07 ± 0.099
A204, 0.3704 µM	1.04 ± 0.07
A204, 1.111 µM	1.07 ± 0.058
A204, 3.333 µM	1.02 ± 0.022
A204, 10 µM	0.871 ± 0.037
G401, 0.00017 µM	1.05 ± 0.04
G401, 0.00051 µM	1.01 ± 0.032
G401, 0.00152 µM	1.01 ± 0.044
G401, 0.00457 µM	1.02 ± 0.03
G401, 0.01372 µM	1.03 ± 0.02
G401, 0.04115 µM	1.03 ± 0.041
G401, 0.1235 µM	1 ± 0.037
G401, 0.3704 µM	1.02 ± 0.048
G401, 1.111 µM	0.982 ± 0.088
G401, 3.333 µM	1 ± 0.055
G401, 10 µM	0.894 ± 0.022
HS729, 0.00017 µM	1.08 ± 0.049
HS729, 0.00051 µM	1.09 ± 0.077
HS729, 0.00152 µM	1.04 ± 0.041
HS729, 0.00457 µM	1.07 ± 0.027
HS729, 0.01372 µM	1.03 ± 0.05
HS729, 0.04115 µM	0.991 ± 0.09
HS729, 0.1235 µM	1.01 ± 0.061
HS729, 0.3704 µM	1.01 ± 0.039
HS729, 1.111 µM	0.978 ± 0.078
HS729, 3.333 µM	0.938 ± 0.091
HS729, 10 µM	0.862 ± 0.07
KHOS-240S, 0.00017 µM	1.09 ± 0.075
KHOS-240S, 0.00051 µM	1.06 ± 0.022
KHOS-240S, 0.00152 µM	1.08 ± 0.049
KHOS-240S, 0.00457 µM	1.12 ± 0.076
KHOS-240S, 0.01372 µM	1.1 ± 0.034
KHOS-240S, 0.04115 µM	1.09 ± 0.012
KHOS-240S, 0.1235 µM	1.08 ± 0.033
KHOS-240S, 0.3704 µM	1.07 ± 0.011
KHOS-240S, 1.111 µM	1.07 ± 0.017
KHOS-240S, 3.333 µM	1.04 ± 0.017
KHOS-240S, 10 µM	1.03 ± 0.032
MES-SA, 0.00017 µM	1 ± 0.05
MES-SA, 0.00051 µM	0.9618 ± 0.0083
MES-SA, 0.00152 µM	0.963 ± 0.027
MES-SA, 0.00457 µM	0.9579 ± 0.0076
MES-SA, 0.01372 µM	0.964 ± 0.028
MES-SA, 0.04115 µM	0.956 ± 0.0076
MES-SA, 0.1235 µM	0.968 ± 0.044
MES-SA, 0.3704 µM	0.933 ± 0.019
MES-SA, 1.111 µM	0.928 ± 0.014
MES-SA, 3.333 µM	0.892 ± 0.055
MES-SA, 10 µM	0.792 ± 0.035
SK-ES-1, 0.00017 µM	1.12 ± 0.014
SK-ES-1, 0.00051 µM	1.14 ± 0.029
SK-ES-1, 0.00152 µM	1.1 ± 0.037
SK-ES-1, 0.00457 µM	1.04 ± 0.089
SK-ES-1, 0.01372 µM	1.04 ± 0.031
SK-ES-1, 0.04115 µM	1.09 ± 0.048
SK-ES-1, 0.1235 µM	1.05 ± 0.042
SK-ES-1, 0.3704 µM	1.06 ± 0.034
SK-ES-1, 1.111 µM	1.03 ± 0.085
SK-ES-1, 3.333 µM	1.01 ± 0.044
SK-ES-1, 10 µM	1.02 ± 0.049
SK-LMS-1, 0.00017 µM	1.08 ± 0.013
SK-LMS-1, 0.00051 µM	1.1 ± 0.027
SK-LMS-1, 0.00152 µM	1.08 ± 0.011
SK-LMS-1, 0.00457 µM	1.08 ± 0.017
SK-LMS-1, 0.01372 µM	1.04 ± 0.024
SK-LMS-1, 0.04115 µM	1.11 ± 0.029
SK-LMS-1, 0.1235 µM	1.11 ± 0.049
SK-LMS-1, 0.3704 µM	1.05 ± 0.029
SK-LMS-1, 1.111 µM	1.08 ± 0.07
SK-LMS-1, 3.333 µM	0.997 ± 0.065
SK-LMS-1, 10 µM	0.981 ± 0.013
SW684, 0.00017 µM	1.15 ± 0.035
SW684, 0.00051 µM	1.19 ± 0.037
SW684, 0.00152 µM	1.2 ± 0.024
SW684, 0.00457 µM	1.22 ± 0.019
SW684, 0.01372 µM	1.2 ± 0.062
SW684, 0.04115 µM	1.16 ± 0.075
SW684, 0.1235 µM	1.22 ± 0.059
SW684, 0.3704 µM	1.18 ± 0.012
SW684, 1.111 µM	1.19 ± 0.059
SW684, 3.333 µM	1.19 ± 0.014
SW684, 10 µM	1.174 ± 0.0072
SW872, 0.00017 µM	1.05 ± 0.011
SW872, 0.00051 µM	1.056 ± 0.0072
SW872, 0.00152 µM	1.04 ± 0.02
SW872, 0.00457 µM	1.04 ± 0.034
SW872, 0.01372 µM	1.03 ± 0.026
SW872, 0.04115 µM	1.03 ± 0.031
SW872, 0.1235 µM	1.07 ± 0.023
SW872, 0.3704 µM	1.04 ± 0.035
SW872, 1.111 µM	1.02 ± 0.013
SW872, 3.333 µM	1.03 ± 0.021
SW872, 10 µM	1.01 ± 0.02
SW982, 0.00017 µM	1.04 ± 0.013
SW982, 0.00051 µM	1.09 ± 0.028
SW982, 0.00152 µM	1.11 ± 0.052
SW982, 0.00457 µM	1.07 ± 0.015
SW982, 0.01372 µM	1.08 ± 0.043
SW982, 0.04115 µM	1.068 ± 0.0072
SW982, 0.1235 µM	1.086 ± 0.0053
SW982, 0.3704 µM	1.07 ± 0.029
SW982, 1.111 µM	1.06 ± 0.02
SW982, 3.333 µM	1.07 ± 0.015
SW982, 10 µM	1.12 ± 0.02
SW1353, 0.00017 µM	1.07 ± 0.042
SW1353, 0.00051 µM	1.07 ± 0.019
SW1353, 0.00152 µM	1.09 ± 0.025
SW1353, 0.00457 µM	1.06 ± 0.029
SW1353, 0.01372 µM	1.02 ± 0.049
SW1353, 0.04115 µM	1.007 ± 0.0014
SW1353, 0.1235 µM	1.048 ± 0.0084
SW1353, 0.3704 µM	1.02 ± 0.043
SW1353, 1.111 µM	0.974 ± 0.067
SW1353, 3.333 µM	0.949 ± 0.016
SW1353, 10 µM	0.853 ± 0.068
SYO-1, 0.00017 µM	1.018 ± 0.0036
SYO-1, 0.00051 µM	1.02 ± 0.026
SYO-1, 0.00152 µM	1.03 ± 0.017
SYO-1, 0.00457 µM	1.02 ± 0.013
SYO-1, 0.01372 µM	1.03 ± 0.032
SYO-1, 0.04115 µM	0.998 ± 0.01
SYO-1, 0.1235 µM	0.992 ± 0.034
SYO-1, 0.3704 µM	0.994 ± 0.018
SYO-1, 1.111 µM	0.965 ± 0.036
SYO-1, 3.333 µM	0.953 ± 0.024
SYO-1, 10 µM	0.894 ± 0.059
